Laboratory results as given in patent US20220079910A1, “Cancer Treatment Useing Docetaxel by Controlling Peak Plasma Levels” (Modra Pharmaceuticals B.V., priority 2018, published 2022).
Like-named read-outs stand apart in the source and are kept apart here.

Assays:
[1] = test system: metastasized castration-resistant prostate cancer (mCRPC); test: Phase IB/IIA study in mCRPC (M17DOC): PSA response, radiological response, treatment cycles; assay type: in vivo, human; details: FIG. 3 / FIG. 6; target range 500-1500 h*ng/mL (FIG. 6)
Description: In FIG. 8 a plot is shown of the number of treatment cycles (with a maximum of 30) in a multicenter clinical phase IB study in mCRPC (M17DOC) of evaluable patients. Patients were scored, as PSA progression (black bars); PSA equal to baseline or decline (<50%) (dark grey bars); PSA response (decline ≥50%) (medium grey bars); clinical response (pain reduction) up to the maximum treatment period permitted in the protocol of 30 weeks (light grey bars).
(§4) A multicenter clinical phase IB/IIA study was conducted in mCRPC (M17DOC), wherein ModraDoc006, an oral docetaxel formulation was combined with ritonavir (ModraDoc006/r), in metastasized castration-resistant prostate cancer (mCRPC).
(§5) The study included patients diagnosed with metastasized castration-resistant prostate cancer (mCRPC), dosed in a bi-daily once weekly (BIDW) dosing schedule at 4 dose levels (see table below).
This study included 20 evaluable patients diagnosed with metastasized castration-resistant prostate cancer (mCRPC), dosed in a bi-daily once weekly (BIDW) dosing schedule at 4 dose levels (see table).

[2] = Phase I trial N10BOM: docetaxel plasma exposure after oral docetaxel with ritonavir; assay type: in vivo; details: human; for AUC(0-t): read-out: docetaxel AUC0-48 h
Description: (§1) We treated in a phase I trial (N10BOM) cancer patients (n=64) with oral docetaxel in combination with ritonavir. The dose was administered bi-daily once per week continuously.

[3] = IV docetaxel q3w AUC in mCRPC patients vs other tumors (De Vries Schultink et al.); details: human, in vivo, weekly equivalent, read-out: weekly AUC of IV docetaxel in mCRPC patients (q3w AUC divided by 3)
Description: The target minimum AUC threshold in mCRPC patients is highlighted and ranges from about 600-800 h*ng/mL.

cancer patients [4] = test: Phase I trial N07DOW: treatment duration, SAEs/DLTs, best response; assay type: in vivo, human; details: n=100
Description: (§2) We treated in a phase I trial (N07DOW) cancer patients (n=100) with oral docetaxel in combination with ritonavir. The dose was administered on one day (single dose), once per week. Data presented as mean±standard deviation. If available, kinetic data of 2 cycles per patient were used.
Treatment duration of 19 patients was from 19 up to 72 weeks. These were patients with the following cancers. Head and neck (n=1), non-small cell lung (n=8), anal (n=1), primary unknown (n=3), ovarian (n=1), esophageal (n=1), urothelial cell (n=2), leiomyosarcoma (n=1) and neuroendocrine lung carcinoma (n=1). The docetaxel exposure in these patients was:
(§3) The docetaxel exposure in these patients was:
Fiftytwo patients had SD (stable disease) (n=42) or PR (partial response) (n=10) as best treatment response.

[5] = Phase I trial N07DOW: docetaxel plasma exposure after oral docetaxel with ritonavir; assay type: in vivo; details: human, mean±SD; for AUC(0-t): read-out: docetaxel AUC0-48 h
Description: as §2

[6] = weekly docetaxel 35 mg/m2 as 0.5 h intravenous infusion; cited from earlier work
[7] = Weekly intravenous docetaxel infusion: AUC and CMAX (Baker et al.); assay type: in vivo, human; details: IV 35 mg/m2 in 0.5 h vs oral in patients with solid tumors (not prostate)
[8] = in vivo
Description: The described method was successfully applied in clinical studies with oral administration of docetaxel in combination with ritonavir.
Our next step was to investigate this oral treatment schedule in patients with metastatic Castration Resistant Prostate Cancer (mCRPC) in a phase IB/.IIA trial.
as §4, §5

[9] = cited from earlier work
cancer patients [10] = test: Phase I trial N10BOM: treatment duration, SAEs/DLTs, best response; assay type: in vivo, human; details: n=64
Description: as §1
Treatment duration of 8 patients was from 19 up to 55 weeks. These were patients with the following cancers. Head and neck cancer (n=2; PR), non-small cell lung (n=4; SD), colorectal (n=1; SD) and giant cell neuroendocrine carcinoma (n=1; SD). The docetaxel exposure in these patients was:
as §3
Twentyfive patients had SD or PR as best treatment response.

[11] = oral, 10 patients with SAEs and DLTs (≥grade 3)
[12] = oral, 25 patients with SD or PR as best treatment response
[13] = po, oral docetaxel + ritonavir bi-daily once per week, 8 patients with treatment duration 19 up to 55 weeks

CC(=O)O[C@@]12CO[C@@H]1C[C@H](O)[C@@]1(C)C(=O)[C@H](O)C3=C(C)[C@@H](OC(=O)[C@H](O)[C@@H](NC(=O)OC(C)(C)C)c4ccccc4)C[C@@](O)([C@@H](OC(=O)c4ccccc4)[C@H]21)C3(C)C [docetaxel]
length of treatment (number of cycles) in patients in a target docetaxel AUC range [1]: trending longer
Cmax [2, 11]: 175 ± 117 ng/mL
AUC(0-t) [2, 11]: 1810 ± 1260 ng·h/mL
Cmax [2, 12]: 140 ± 83 ng/mL
AUC(0-t) [2, 12]: 1240 ± 702 ng·h/mL
Cmax [2, 13]: 143 ± 67 ng/mL
AUC(0-t) [2, 13]: 1220 ± 620 ng·h/mL
AUC [3]: ~600 ng·h/mL
patients with PR (partial response) as best treatment response (cancer patients [4]): 10 patients
patients with SAEs and DLTs (possible, probable, definite; ≥grade 3) (cancer patients [4]): 15 patients
patients with SD (stable disease) as best treatment response (cancer patients [4]): 42 patients
patients with SD or PR as best treatment response (cancer patients [4]): Fiftytwo
AUC(0-t) ([5]; oral, 15 patients with SAEs and DLTs (≥grade 3)): 2340 ± 1450 ng·h/mL
Cmax ([5]; oral, 15 patients with SAEs and DLTs (≥grade 3), read-out: docetaxel CMAX): 351 ± 244 ng/mL
AUC(0-t) ([5]; oral, 52 patients with SD or PR as best treatment response): 1080 ± 1020 ng·h/mL
Cmax ([5]; oral, 52 patients with SD or PR as best treatment response, read-out: docetaxel CMAX): 197 ± 186 ng/mL
AUC(0-t) ([5]; po, oral docetaxel + ritonavir, single dose once per week, 19 patients with treatment duration 19 up to 72 weeks): 803 ± 634 ng·h/mL
Cmax ([5]; po, oral docetaxel + ritonavir, single dose once per week, 19 patients with treatment duration 19 up to 72 weeks, read-out: docetaxel CMAX (peak)): 148 ± 113 ng/mL
AUC [6]: 1480 ± 410 ng·h/mL
CMAX after intravenous administration relative to oral ModraDoc006/r 30-20/100-100 [7]: ten-fold higher
docetaxel clearance in mCRPC patient population vs patients with other solid tumors [8]: higher clearance
ratio of AUCs for IV docetaxel in mCRPC patients vs other tumors ([9]; 1820/3300): 55%
q3w AUC of IV docetaxel in mCRPC patients ([9]; IV, every three weeks): 1820 ng·h/mL
patients with SAEs and DLTs (possible, probable, definite; ≥grade 3) (cancer patients [10]): 10 patients
patients with SD or PR as best treatment response (cancer patients [10]): Twentyfive
